± gives the standard deviation of the averaged measurements.
Tested on: HepaRG
Assay: LDH release cytotoxicity, % of total lysis control; higher = more cytotoxic
Details: 48 h
Outline: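 The CytoTox-ONE kit was used to read LDH in 50 µL spent medium as resorufin fluorescence on a Tecan Safire, with 0.1% Triton X added to total lysis wells. Beforehand, single-lot HepaRG cells on collagen I-coated 96-well plates had been exposed in duplicate for 48 h to eight-point half-log series (top 100 µM) in serum-free induction medium containing 0.5% DMSO. Percent cytotoxicity was normalized against on-plate vehicle and total lysis controls and averaged over duplicates.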

## CNC(=O)N(C)c1nnc(C(C)(C)C)s1 [Tebuthiuron]
0.03162 µM
  LDH release cytotoxicity: -1.29 ± 0.35%
0.1 µM
  LDH release cytotoxicity: -1.38 ± 0.11%
0.3162278 µM
  LDH release cytotoxicity: -1.87 ± 0.62%
1 µM
  LDH release cytotoxicity: -1.53 ± 0.63%
3.16228 µM
  LDH release cytotoxicity: -0.935 ± 0.044%
10 µM
  LDH release cytotoxicity: -1.24 ± 0.31%
31.6228 µM
  LDH release cytotoxicity: -1.15 ± 0.46%
100 µM
  LDH release cytotoxicity: 0.223 ± 0.25%

## Cc1c(F)c(F)c(COC(=O)C2C(C=C(Cl)C(F)(F)F)C2(C)C)c(F)c1F (centres undefined) [Tefluthrin]
0.03162 µM
  LDH release cytotoxicity: -0.665 ± 0.058%
0.1 µM
  LDH release cytotoxicity: -0.785 ± 0.14%
0.3162278 µM
  LDH release cytotoxicity: -1.49 ± 0.56%
1 µM
  LDH release cytotoxicity: -1.6 ± 0.5%
3.16228 µM
  LDH release cytotoxicity: -1.72 ± 0.74%
10 µM
  LDH release cytotoxicity: -0.97 ± 0.31%
31.6228 µM
  LDH release cytotoxicity: -0.478 ± 0.69%
100 µM
  LDH release cytotoxicity: -0.883 ± 1%

## CCC(=NOCC=CCl)C1C(=O)CC(C2CCOCC2)CC1=O (centres undefined) [Tepraloxydim]
0.03162 µM
  LDH release cytotoxicity: -1.86 ± 0.12%
0.1 µM
  LDH release cytotoxicity: -1.65 ± 0.29%
0.3162278 µM
  LDH release cytotoxicity: -1.97 ± 0.062%
1 µM
  LDH release cytotoxicity: -1.72 ± 0.081%
3.16228 µM
  LDH release cytotoxicity: -1.7 ± 0.22%
10 µM
  LDH release cytotoxicity: -1.32 ± 0.12%
31.6228 µM
  LDH release cytotoxicity: -0.75 ± 0.13%
100 µM
  LDH release cytotoxicity: -0.617 ± 0.06%

## CC1=NC(=O)N(C(C)(C)C)C(=O)C1Cl (centres undefined) [Terbacil]
0.031623 µM
  LDH release cytotoxicity: -1.65 ± 0.11%
0.1 µM
  LDH release cytotoxicity: -3.63 ± 0.95%
0.316228 µM
  LDH release cytotoxicity: -2.5 ± 0.94%
1 µM
  LDH release cytotoxicity: -3.38 ± 0.33%
3.16228 µM
  LDH release cytotoxicity: -2.68 ± 1.1%
10 µM
  LDH release cytotoxicity: -2.77 ± 0.39%
31.6228 µM
  LDH release cytotoxicity: -1.74 ± 0.92%
100 µM
  LDH release cytotoxicity: 2.1 ± 0.37%

## CCOP(=S)(OCC)SCSC(C)(C)C [Terbufos]
0.03162 µM
  LDH release cytotoxicity: -1.37 ± 0.13%
0.1 µM
  LDH release cytotoxicity: -0.712 ± 0.88%
0.3162278 µM
  LDH release cytotoxicity: -1.15 ± 0.65%
1 µM
  LDH release cytotoxicity: -1.03 ± 0.13%
3.16228 µM
  LDH release cytotoxicity: -0.647 ± 0.28%
10 µM
  LDH release cytotoxicity: -0.0424 ± 0.46%
31.6228 µM
  LDH release cytotoxicity: -0.0818 ± 0.1%
100 µM
  LDH release cytotoxicity: 1.12 ± 0.089%

## CCNc1nc(Cl)nc(NC(C)(C)C)n1 [Terbutylazine]
0.03162 µM
  LDH release cytotoxicity: 0.3 ± 1.3%
0.1 µM
  LDH release cytotoxicity: -1.75 ± 0.07%
0.3162278 µM
  LDH release cytotoxicity: -0.304 ± 1.2%
1 µM
  LDH release cytotoxicity: -1.25 ± 0.2%
3.16228 µM
  LDH release cytotoxicity: -0.494 ± 0.44%
10 µM
  LDH release cytotoxicity: -0.989 ± 0.83%
31.6228 µM
  LDH release cytotoxicity: -0.271 ± 1.1%
100 µM
  LDH release cytotoxicity: -0.0173 ± 1.5%

## CCC(=O)OC1CCC2C3CCC4=CC(=O)CCC4(C)C3CCC12C (centres undefined) [Testosterone propionate]
0.03162 µM
  LDH release cytotoxicity: -1.39 ± 0.61%
0.1 µM
  LDH release cytotoxicity: -0.545 ± 0.63%
0.3162278 µM
  LDH release cytotoxicity: -1.1 ± 0.026%
1 µM
  LDH release cytotoxicity: -1.85 ± 0.12%
3.16228 µM
  LDH release cytotoxicity: -1.06 ± 0.29%
10 µM
  LDH release cytotoxicity: -1.07 ± 0.27%
31.6228 µM
  LDH release cytotoxicity: -0.42 ± 0.67%
100 µM
  LDH release cytotoxicity: -0.461 ± 0.24%

## O=C(O)Cc1cc(I)c(Oc2cc(I)c(O)c(I)c2)c(I)c1 [Tetrac]
0.0211873 µM
  LDH release cytotoxicity: 0.0963 ± 1.1%
0.067 µM
  LDH release cytotoxicity: -0.0291 ± 0.51%
0.211873 µM
  LDH release cytotoxicity: 0.0359 ± 0.7%
0.67 µM
  LDH release cytotoxicity: 0.258 ± 1.1%
2.11873 µM
  LDH release cytotoxicity: 1.04 ± 0.39%
6.7 µM
  LDH release cytotoxicity: 0.279 ± 0.69%
21.1873 µM
  LDH release cytotoxicity: -0.194 ± 0.92%
67 µM
  LDH release cytotoxicity: 34 ± 0.74%

## FC(F)C(F)(F)OCC(Cn1cncn1)c1ccc(Cl)cc1Cl (centres undefined) [Tetraconazole]
0.0314647 µM
  LDH release cytotoxicity: -0.665 ± 0.72%
0.0995 µM
  LDH release cytotoxicity: -2.23 ± 0.2%
0.3146466 µM
  LDH release cytotoxicity: -1.54 ± 0.36%
0.995 µM
  LDH release cytotoxicity: -2.38 ± 0.84%
3.14647 µM
  LDH release cytotoxicity: -2.48 ± 0.21%
9.95 µM
  LDH release cytotoxicity: -2.1 ± 0.41%
31.4647 µM
  LDH release cytotoxicity: 1.5 ± 0.2%
99.5 µM
  LDH release cytotoxicity: 52.5 ± 4.9%

## CCN(CC)C(=S)SSC(=S)N(CC)CC [Tetraethylthiuram disulfide]
0.0322552 µM
  LDH release cytotoxicity: -1.43 ± 0.25%
0.102 µM
  LDH release cytotoxicity: -2.15 ± 0.58%
0.322552 µM
  LDH release cytotoxicity: -2.5 ± 0.25%
1.02 µM
  LDH release cytotoxicity: -2.4 ± 0.028%
3.2255232 µM
  LDH release cytotoxicity: -1.91 ± 0.23%
10.2 µM
  LDH release cytotoxicity: -1.62 ± 0.69%
32.2552 µM
  LDH release cytotoxicity: -0.659 ± 0.28%
102 µM
  LDH release cytotoxicity: 3.01 ± 0.7%

## CC(C)=CC1C(C(=O)OCN2C(=O)C3=C(CCCC3)C2=O)C1(C)C (centres undefined) [Tetramethrin]
0.03162 µM
  LDH release cytotoxicity: -1.77 ± 0.86%
0.1 µM
  LDH release cytotoxicity: -1.73 ± 1%
0.3162278 µM
  LDH release cytotoxicity: -2 ± 0.85%
1 µM
  LDH release cytotoxicity: -2.13 ± 0.4%
3.16228 µM
  LDH release cytotoxicity: -1.65 ± 0.066%
10 µM
  LDH release cytotoxicity: -1.51 ± 0.38%
31.6228 µM
  LDH release cytotoxicity: -0.61 ± 0.13%
100 µM
  LDH release cytotoxicity: 0.736 ± 0.64%

## O=C1CCC(N2C(=O)c3ccccc3C2=O)C(=O)N1 (centres undefined) [Thalidomide]
0.03162 µM
  LDH release cytotoxicity: -0.888 ± 0.55%
0.1 µM
  LDH release cytotoxicity: -1.52 ± 0.44%
0.3162278 µM
  LDH release cytotoxicity: -0.291 ± 0.28%
1 µM
  LDH release cytotoxicity: -0.415 ± 0.18%
3.16228 µM
  LDH release cytotoxicity: -0.0333 ± 0.45%
10 µM
  LDH release cytotoxicity: 0.674 ± 0.93%
31.6228 µM
  LDH release cytotoxicity: 1.56 ± 1.5%
100 µM
  LDH release cytotoxicity: 1.53 ± 1.5%

## Cn1cnc2c1c(=O)[nH]c(=O)n2C [Theobromine]
0.0132816 µM
  LDH release cytotoxicity: 0.266 ± 2.6%
0.042 µM
  LDH release cytotoxicity: 0.527 ± 1.8%
0.132816 µM
  LDH release cytotoxicity: 0.244 ± 1.1%
0.42 µM
  LDH release cytotoxicity: -0.545 ± 0.65%
1.3281566 µM
  LDH release cytotoxicity: 0.0875 ± 0.46%
4.2 µM
  LDH release cytotoxicity: -0.226 ± 0.1%
13.281566 µM
  LDH release cytotoxicity: -0.215 ± 0.61%
42 µM
  LDH release cytotoxicity: 0.896 ± 0.38%

## Cn1c(=O)c2[nH]cnc2n(C)c1=O [Theophylline]
0.03162 µM
  LDH release cytotoxicity: -1.27 ± 0.97%
0.1 µM
  LDH release cytotoxicity: -2.1 ± 0.29%
0.3162278 µM
  LDH release cytotoxicity: -1.54 ± 0.53%
1 µM
  LDH release cytotoxicity: -1.74 ± 0.26%
3.16228 µM
  LDH release cytotoxicity: -1.51 ± 0.33%
10 µM
  LDH release cytotoxicity: -1.15 ± 0.042%
31.6228 µM
  LDH release cytotoxicity: -0.719 ± 0.16%
100 µM
  LDH release cytotoxicity: -0.479 ± 0.38%

## c1ccc2[nH]c(-c3cscn3)nc2c1 [Thiabendazole]
0.03162 µM
  LDH release cytotoxicity: -1.05 ± 0.62%
0.1 µM
  LDH release cytotoxicity: -0.974 ± 0.082%
0.3162278 µM
  LDH release cytotoxicity: -1.37 ± 0.03%
1 µM
  LDH release cytotoxicity: -1.6 ± 0.34%
3.16228 µM
  LDH release cytotoxicity: -1.13 ± 0.68%
10 µM
  LDH release cytotoxicity: -0.856 ± 0.24%
31.6228 µM
  LDH release cytotoxicity: 0.392 ± 0.63%
100 µM
  LDH release cytotoxicity: 5.7 ± 1.5%

## N#CN=C1SCCN1Cc1ccc(Cl)nc1 [Thiacloprid]
0.03162 µM
  LDH release cytotoxicity: -2.96 ± 0.36%
0.1 µM
  LDH release cytotoxicity: -3.73 ± 0.31%
0.3162278 µM
  LDH release cytotoxicity: -3.467 ± 0.025%
1 µM
  LDH release cytotoxicity: -3.3 ± 0.68%
3.16228 µM
  LDH release cytotoxicity: -3.46 ± 0.55%
10 µM
  LDH release cytotoxicity: -2.54 ± 0.15%
31.6228 µM
  LDH release cytotoxicity: -2.87 ± 0.072%
100 µM
  LDH release cytotoxicity: -1.64 ± 1.2%

## CN1COCN(Cc2cnc(Cl)s2)C1=N[N+](=O)[O-] [Thiamethoxam]
0.03162 µM
  LDH release cytotoxicity: -0.296 ± 0.14%
0.1 µM
  LDH release cytotoxicity: -1.13 ± 0.85%
0.3162278 µM
  LDH release cytotoxicity: -0.0609 ± 0.4%
1 µM
  LDH release cytotoxicity: -1.83 ± 0.5%
3.16228 µM
  LDH release cytotoxicity: -1.49 ± 0.41%
10 µM
  LDH release cytotoxicity: 0.119 ± 1.6%
31.6228 µM
  LDH release cytotoxicity: -1.01 ± 0.87%
100 µM
  LDH release cytotoxicity: 0.102 ± 1.4%

## COC(=O)c1c(C(F)F)nc(C(F)(F)F)c(C2=NCCS2)c1CC(C)C [Thiazopyr]
0.03162 µM
  LDH release cytotoxicity: -0.958 ± 2.2%
0.1 µM
  LDH release cytotoxicity: -0.18 ± 0.21%
0.3162278 µM
  LDH release cytotoxicity: -0.693 ± 0.24%
1 µM
  LDH release cytotoxicity: -0.8 ± 0.35%
3.16228 µM
  LDH release cytotoxicity: -0.567 ± 0.015%
10 µM
  LDH release cytotoxicity: -0.719 ± 0.32%
31.6228 µM
  LDH release cytotoxicity: -0.722 ± 0.28%
100 µM
  LDH release cytotoxicity: -0.433 ± 0.5%
